Measured values taken from ChEMBL document CHEMBL1687877, “Tripeptide motifs in biology: targets for peptidomimetic design” (J Med Chem, 2011).
Where a SMILES comes first, the peptide text is derived from it. Bridges are numbered along the chain shown (N, C = ends).

Legend:
Cadherin-2 = target: T1, Cadherin-2 (Homo sapiens, UniProt P19022); assay: Antagonist activity at N-cadherin; assay type: functional
T1 sequence (P19022 whole entry): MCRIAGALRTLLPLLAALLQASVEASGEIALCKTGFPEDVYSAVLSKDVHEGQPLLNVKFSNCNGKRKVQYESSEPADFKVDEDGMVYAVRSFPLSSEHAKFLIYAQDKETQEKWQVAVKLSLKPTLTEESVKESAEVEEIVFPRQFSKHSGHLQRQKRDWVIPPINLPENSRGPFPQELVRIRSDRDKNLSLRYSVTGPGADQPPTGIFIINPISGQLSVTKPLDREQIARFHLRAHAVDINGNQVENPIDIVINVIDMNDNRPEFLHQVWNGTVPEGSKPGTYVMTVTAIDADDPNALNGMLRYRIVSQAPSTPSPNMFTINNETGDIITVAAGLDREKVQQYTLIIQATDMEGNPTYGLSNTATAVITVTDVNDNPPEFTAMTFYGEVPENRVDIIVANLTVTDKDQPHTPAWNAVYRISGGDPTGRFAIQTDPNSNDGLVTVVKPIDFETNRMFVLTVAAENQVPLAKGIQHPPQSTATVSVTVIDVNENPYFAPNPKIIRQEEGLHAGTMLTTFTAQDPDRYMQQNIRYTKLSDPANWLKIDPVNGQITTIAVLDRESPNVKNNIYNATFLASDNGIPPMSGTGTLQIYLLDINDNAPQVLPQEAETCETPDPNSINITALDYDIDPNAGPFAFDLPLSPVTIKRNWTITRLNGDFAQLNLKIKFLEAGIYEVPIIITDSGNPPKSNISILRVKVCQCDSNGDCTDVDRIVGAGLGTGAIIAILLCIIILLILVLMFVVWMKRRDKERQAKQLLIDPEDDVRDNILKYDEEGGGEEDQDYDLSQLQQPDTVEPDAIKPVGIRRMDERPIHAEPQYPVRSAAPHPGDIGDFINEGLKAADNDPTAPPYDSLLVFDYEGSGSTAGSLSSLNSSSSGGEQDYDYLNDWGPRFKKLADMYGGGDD

[1] = Inhibition of bacterial DNA polymerase beta association with DNA polymerase alpha
[2] = Inhibition of bacterial DNA polymerase beta association with DNA polymerase delta
[3] = Induction of neurite outgrowth in rat CGN cells at 7.3 uM; assay type: functional
[4] = target: D(2) dopamine receptor (Homo sapiens) (UniProt P14416); assay: Agonist activity at human dopamine D2 receptor at 10 nM; assay type: functional
D(2) dopamine receptor (Homo sapiens), sequence (P14416 whole entry): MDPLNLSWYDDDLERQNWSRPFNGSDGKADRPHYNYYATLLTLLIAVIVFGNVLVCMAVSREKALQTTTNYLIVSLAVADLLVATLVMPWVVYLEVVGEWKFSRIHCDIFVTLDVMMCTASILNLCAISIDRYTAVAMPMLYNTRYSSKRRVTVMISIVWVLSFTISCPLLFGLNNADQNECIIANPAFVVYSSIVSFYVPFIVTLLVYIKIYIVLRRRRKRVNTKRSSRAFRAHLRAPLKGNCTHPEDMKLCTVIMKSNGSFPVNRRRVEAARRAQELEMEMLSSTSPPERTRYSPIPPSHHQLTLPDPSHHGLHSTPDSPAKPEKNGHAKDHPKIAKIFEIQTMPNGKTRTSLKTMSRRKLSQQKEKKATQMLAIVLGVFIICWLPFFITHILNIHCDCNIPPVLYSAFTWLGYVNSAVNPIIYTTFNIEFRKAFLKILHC

SMILES: CC(=O)N[C@H]1CSSC[C@@H](C(N)=O)NC(=O)[C@H](CC(=O)O)NC(=O)[C@H](C(C)C)NC(=O)[C@H](C)NC(=O)[C@H](Cc2cnc[nH]2)NC1=O (Ac-CHAVDC-NH2; disulfide 1-6)
- IC50 (Cadherin-2): 5 µM

SMILES: CCC/C(=N\OCc1ccc(-c2ccccc2)cc1)C1C(=O)CC(C)(C2OCC(C)(C)CO2)OC1=O (configuration not stated)
- IC50 [1]: 270 µM
- IC50 [2]: 90 µM

SMILES: CC[C@H](C)[C@@H]1NC(=O)[C@H](CC(=O)O)NC(=O)[C@H](C(C)C)NC(=O)[C@H](C)NC(=O)[C@H](Cc2cnc[nH]2)NC(=O)CNC(=O)[C@H](CC(N)=O)NC(=O)[C@H]([C@@H](C)CC)NC(=O)[C@H](CC(=O)O)NC(=O)[C@H](C(C)C)NC(=O)[C@H](C)NC(=O)[C@H](Cc2cnc[nH]2)NC(=O)[C@@H](NC(C)=O)CSSC[C@@H](C(N)=O)NC1=O (Ac-CHAVDINGHAVDIC-NH2; disulfide 1-14)
- Activity [3]: 70%

SMILES: N[C@@H](Cc1ccccc1)C(=O)NC1C(=O)N(CC(=O)O)C[C@H]1CC(=O)O (some centres not stated)
- Activity [4]: 146%

SMILES: CCC/C(=N\OC/C(Cl)=C/c1ccc(Cl)cc1)C1C(=O)CC(C)(C)CC1=O
- IC50 [1]: 350 µM
- IC50 [2]: 290 µM
